# T1: PTP-MEG2 (megakaryocyte protein tyrosine phosphatase 2, PTPN9) (Homo sapiens, UniProt P43378)
# T1 sequence (P43378 1-593): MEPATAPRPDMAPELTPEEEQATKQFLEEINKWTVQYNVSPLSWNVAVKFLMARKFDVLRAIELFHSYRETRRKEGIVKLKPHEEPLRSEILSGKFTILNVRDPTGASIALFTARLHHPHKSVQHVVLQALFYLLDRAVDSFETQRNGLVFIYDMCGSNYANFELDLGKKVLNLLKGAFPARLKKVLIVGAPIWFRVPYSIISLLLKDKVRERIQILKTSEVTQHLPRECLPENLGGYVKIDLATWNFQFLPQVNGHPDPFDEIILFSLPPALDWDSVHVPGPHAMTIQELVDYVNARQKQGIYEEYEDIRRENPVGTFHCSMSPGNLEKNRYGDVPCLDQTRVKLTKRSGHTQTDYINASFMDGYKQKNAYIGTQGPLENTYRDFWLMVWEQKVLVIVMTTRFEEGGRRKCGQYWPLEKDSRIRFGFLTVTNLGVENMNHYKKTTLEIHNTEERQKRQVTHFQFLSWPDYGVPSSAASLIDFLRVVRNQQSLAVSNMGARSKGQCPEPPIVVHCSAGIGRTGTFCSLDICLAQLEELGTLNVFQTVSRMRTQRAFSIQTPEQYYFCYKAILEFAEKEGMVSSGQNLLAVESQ
# Legend:
# [1] = molecular target: T1, PTP-MEG2 (megakaryocyte protein tyrosine phosphatase 2, PTPN9); test: SPR on immobilized purified PTP-MEG2; also DiFMUP enzyme inhibition, IC50 =[…], slow-binding
# [2] = substrate: Cc1cc(=O)oc2c(F)c(OP(=O)(O)O)c(F)cc12; test: fluorogenic substrate hydrolysis by purified enzyme; Km from Lineweaver-Burk plots; format: biochemical, Homo sapiens
# Procedure: fluorogenic substrate hydrolysis by purified enzyme; Km from Lineweaver-Burk plots on PTP-MEG2 (megakaryocyte protein tyrosine phosphatase 2, PTPN9) | kinetic constants of PTP-MEG2 were determined using DiFMUP as a fluorogenic PTP substrate
molecule,measurement,setting,value
O=C(CCc1ccc(O)cc1)c1c(O)cc(O)cc1O[C@@H]1O[C@H](CO)[C@@H](O)[C@H](O)[C@H]1O [phloridzin],Kd,[1],4.66 µM
"PTP-MEG2 (megakaryocyte protein tyrosine phosphatase 2, PTPN9) (Homo sapiens) (protein) MEPATAPRPDMAPELTPEEEQATKQFLEEINKWTVQYNVSPLSWNVAVKFLMARKFDVLRAIELFHSYRETRRKEGIVKLKPHEEPLRSEILSGKFTILNVRDPTGASIALFTARLHHPHKSVQHVVLQALFYLLDRAVDSFETQRNGLVFIYDMCGSNYANFELDLGKKVLNLLKGAFPARLKKVLIVGAPIWFRVPYSIISLLLKDKVRERIQILKTSEVTQHLPRECLPENLGGYVKIDLATWNFQFLPQVNGHPDPFDEIILFSLPPALDWDSVHVPGPHAMTIQELVDYVNARQKQGIYEEYEDIRRENPVGTFHCSMSPGNLEKNRYGDVPCLDQTRVKLTKRSGHTQTDYINASFMDGYKQKNAYIGTQGPLENTYRDFWLMVWEQKVLVIVMTTRFEEGGRRKCGQYWPLEKDSRIRFGFLTVTNLGVENMNHYKKTTLEIHNTEERQKRQVTHFQFLSWPDYGVPSSAASLIDFLRVVRNQQSLAVSNMGARSKGQCPEPPIVVHCSAGIGRTGTFCSLDICLAQLEELGTLNVFQTVSRMRTQRAFSIQTPEQYYFCYKAILEFAEKEGMVSSGQNLLAVESQ",Km,[2],163.1 µM

# Source: publication PMC7998658, “Phloridzin Acts as an Inhibitor of Protein-Tyrosine Phosphatase MEG2 Relevant to Insulin Resistance” (Molecules, 2021)
